Laboratory results: patent publication US7495027B2, “3-aryl-4-hydroxyfuranone compounds and the human and animal health use thereof” (Wyeth, priority 2003, dated 2009)

System: C. elegans
Assay: Efficacy against nematodes (C. elegans motility rating)
Set-up: key: 0: no effect; 7: reduced movement in 24 h; 8: dead in 24 h; 9: dead in 4 h
Details: observations at 4 h and 24 h postimmersion
Experimental: Evaluation of the Efficacy of a 3-Aryl-4-Hydroxyfuranone Against Nematodes
In this evaluation, cultures of C. elegans are maintained on E. coli lawns on Nematode Growth Agar at 20° C. New cultures are established twice a week. Nematodes for testing are rinsed from plates using M9 Buffer. […] One μL of this solution is added to each well of a 96 well plate. A mixture of C. elegans in M9 Buffer (100 μL) is added to each well, such that approximately 50 worms of mixed stages (L1, L2, L3, L4 and adults) are present in each well at a final concentration of 100 ppm, 150 ppm or […] of test compound. Concentration of test compound may be varied by gradient dilution of the stock DMSO solution. Observations are made under a dissecting microscope at 4 h and 24 h postimmersion. A rating is based on the motility of the larvae and adults, using the rating system shown below.

| Compound | Rating (dose 100 ppm) | Rating (dose 150 ppm) |
| --- | --- | --- |
| O=C1OC(=Cc2ccc(OCC3CC3)cc2)C(O)=C1c1ccc(Cl)cc1 (mixture of isomers) | 7 |  |
| Cc1c(C=C2OC(=O)C(c3ccc(OC(F)(F)F)cc3)=C2O)cnn1-c1ccc(F)cc1 (mixture of isomers) | 0 |  |
| Cc1c(C=C2OC(=O)C(c3ccc(OC(F)(F)F)cc3)=C2O)cnn1-c1ccccc1 (mixture of isomers) | 0 |  |
| Cc1cc(C=C2OC(=O)C(c3ccc(OC(F)(F)F)cc3)=C2O)n(C)n1 (mixture of isomers) | 0 |  |
| O=C1OC(=Cc2ccc(-n3cncn3)cc2)C(O)=C1c1ccc(OC(F)(F)F)cc1 (mixture of isomers) | 9 |  |
| CN1CCN(c2ccc(C=C3OC(=O)C(c4ccc(OC(F)(F)F)cc4)=C3O)cc2)CC1 (mixture of isomers) | 0 |  |
| N#Cc1ccc(-c2ccc(C=C3OC(=O)C(c4ccc(OC(F)(F)F)cc4)=C3O)cc2)cc1 (mixture of isomers) | 9 |  |
| O=C1OC(=Cc2ccc(-c3ccc(Cl)cc3)cc2)C(O)=C1c1ccc(OC(F)(F)F)cc1 (mixture of isomers) | 9 |  |
| O=C1OC(=Cc2ccc(-n3cccc3)cc2)C(O)=C1c1ccc(OC(F)(F)F)cc1 (mixture of isomers) | 9 |  |
| O=C1OC(=Cc2ccc(-c3cccs3)cc2)C(O)=C1c1ccc(OC(F)(F)F)cc1 (mixture of isomers) | 9 |  |
| O=C1OC(=Cc2ccc(N3CCOCC3)nc2)C(O)=C1c1ccc(OC(F)(F)F)cc1 (mixture of isomers) | 0 |  |
| O=C1OC(=Cc2ccc(-c3ccccn3)s2)C(O)=C1c1ccc(OC(F)(F)F)cc1 (mixture of isomers) | 9 |  |
| O=C1OC(=Cc2ccc(Br)o2)C(O)=C1c1ccc(OC(F)(F)F)cc1 (mixture of isomers) | 9 |  |
| O=C1OC(=Cc2ccc(Oc3ccccc3)nc2)C(O)=C1c1ccc(OC(F)(F)F)cc1 (mixture of isomers) | 9 |  |
| O=C1OC(=Cc2ccc(C(F)(F)F)cc2)C(O)=C1c1ccc(C(F)(F)F)cc1 (mixture of isomers) [R=H; R1=4-CF3—C6H4**; R2=4-CF3—C6H4] | 9 |  |
| N#Cc1ccc(C=C2OC(=O)C(c3ccc(C(F)(F)F)cc3)=C2O)cc1 (mixture of isomers) [R=H; R1=4-CF3—C6H4**; R2=4-CN—C6H4] | 9 |  |
| O=C1OC(=Cc2ccc(Cl)cc2)C(O)=C1c1ccc(C(F)(F)F)cc1 (mixture of isomers) [R=H; R1=4-CF3—C6H4**; R2=4-Cl—C6H4] | 9 |  |
| N#Cc1ccc(C2=C(O)C(=Cc3ccc(Cl)cc3Cl)OC2=O)cc1 (mixture of isomers) [R=H; R1=4-CN—C6H4**; R2=2,4-diCl—C6H4] | 9 |  |
| N#Cc1ccc(C2=C(O)C(=Cc3ccc(Cl)c(Cl)c3)OC2=O)cc1 (mixture of isomers) [R=H; R1=4-CN—C6H4**; R2=3,4-diCl—C6H4] | 9 |  |
| N#Cc1ccc(C2=C(O)C(=Cc3ccc(C(F)(F)F)cc3)OC2=O)cc1 (mixture of isomers) [R=H; R1=4-CN—C6H4**; R2=4-CF3-C6H4] | 9 |  |
| O=C1OC(=Cc2ccccc2C(F)(F)F)C(O)=C1c1ccc(Cl)cc1 (mixture of isomers) [R=H; R1=4-Cl—C6H4**; R2=2-CF3—C6H4] | 9 |  |
| O=C1OC(=Cc2cccc(Cl)c2)C(O)=C1c1ccc(Cl)cc1 (mixture of isomers) [R=H; R1=4-Cl—C6H4**; R2=3-Cl—C6H4] |  | 9 |
| O=C1OC(=Cc2ccc(C(F)(F)F)c(F)c2)C(O)=C1c1ccc(Cl)cc1 (mixture of isomers) [R=H; R1=4-Cl—C6H4**; R2=3-F-4-CF3—C6H4] | 9 |  |

| Compound | Rating (dose 100 ppm) | Rating (dose 150 ppm) |
| --- | --- | --- |
| O=C1OC(=Cc2ccc(C(F)(F)F)cc2)C(O)=C1c1ccc(Cl)cc1 (mixture of isomers) [R=H; R1=4-Cl—C6H4**; R2=4-CF3—C6H4] | 9 |  |
| N#Cc1ccc(C=C2OC(=O)C(c3ccc(Cl)cc3)=C2O)cc1 (mixture of isomers) [R=H; R1=4-Cl—C6H4**; R2=4-CN—C6H4] |  | 9 |
| O=C1OC(=Cc2ccc(SC(F)(F)F)cc2)C(O)=C1c1ccc(Cl)cc1 (mixture of isomers) [R=H; R1=4-Cl—C6H4**; R2=4-SCF3—C6H4] | 9 |  |
| O=C1OC(=Cc2ccc(C(F)(F)F)cc2F)C(O)=C1c1ccc(OC(F)(F)F)cc1 (mixture of isomers) [R=H; R1=4-OCF3—C6H4**; R2=2-F-4-CF3—C6H3] | 9 |  |
| O=C1OC(=Cc2cc(F)cc(C(F)(F)F)c2)C(O)=C1c1ccc(OC(F)(F)F)cc1 (mixture of isomers) [R=H; R1=4-OCF3—C6H4**; R2=3-F-5-CF3—C6H3] | 9 |  |
| O=C1OC(=Cc2ccncc2)C(O)=C1c1ccc(OC(F)(F)F)cc1 (mixture of isomers) [R=H; R1=4-OCF3—C6H4**; R2=pyridine-4-yl] | 0 |  |
| COC1=C(c2cccc(C(F)(F)F)c2)C(=O)O/C1=C\c1cccc(C(F)(F)F)c1 [R=CH3; R1=3-CF3—C6H4; R2=3-CF3—C6H4] |  | 0 |
| COC1=C(c2cccc(C(F)(F)F)c2)C(=O)O/C1=C\c1ccccc1 [R=CH3; R1=3-CF3—C6H4; R2=C6H5] |  | 0 |
| COC1=C(c2ccc(Cl)cc2)C(=O)O/C1=C\c1ccccc1 [R=CH3; R1=4-Cl—C6H4; R2=C6H5] |  | 0 |
| COC1=C(c2ccc(OC)cc2)C(=O)O/C1=C\c1cccc(C(F)(F)F)c1 [R=CH3; R1=4-OCH3—C6H4; R2=3-CF3—C6H4] |  | 0 |
| COC1=C(c2ccc(OC)cc2)C(=O)O/C1=C\c1ccccc1 [R=CH3; R1=4-OCH3—C6H4; R2=C6H5] |  | 0 |
| COC1=C(c2ccccc2)C(=O)O/C1=C\c1cccc(C(F)(F)F)c1 [R=CH3; R1=C6H5; R2=3-CF3—C6H4] |  | 0 |
| O=C1O/C(=C\c2cccc3ccccc23)C(O)=C1c1cccc2ccccc12 [R=H; R1=1-naphthyl; R2=1-naphthyl] |  | 0 |
| O=C1O/C(=C\c2cccc(C(F)(F)F)c2)C(O)=C1c1cccc2ccccc12 [R=H; R1=1-naphthyl; R2=3-CF3—C6H4] |  | 0 |
| O=C1O/C(=C\c2ccc(Cl)cc2)C(O)=C1c1cccc2ccccc12 [R=H; R1=1-naphthyl; R2=4-Cl—C6H4] |  | 0 |
| O=C1O/C(=C\c2ccc(-c3ccccc3F)cc2)C(O)=C1c1ccccc1F [R=H; R1=2-F—C6H4; R2=4-(2′-F-biphenyl)] |  | 8 |
| O=C1O/C(=C\c2cccc(C(F)(F)F)c2)C(O)=C1c1ccc2ccccc2c1 [R=H; R1=2-naphthyl; R2=3-CF3—C6H4] |  | 9 |
| O=C1O/C(=C\c2cccc3ccccc23)C(O)=C1c1cccc(C=NO)c1 [R=H; R1=3-(C═NOH)—C6H4; R2=1-naphthyl] |  | 0 |
| O=C1O/C(=C\c2ccccc2)C(O)=C1c1cccc(C(F)(F)F)c1 [R=H; R1=3-CF3—C6H4; R2=C6H5] |  | 8 |
| O=C1OC(=Cc2cccc3ccccc23)C(O)=C1c1cccc(CO)c1 [R=H; R1=3-CH2OH—C6H4; R2=1-naphthyl] |  | 0 |
| O=Cc1cccc(C2=C(O)/C(=C/c3cccc4ccccc34)OC2=O)c1 [R=H; R1=3-CHO—C6H4; R2=1-naphthyl] |  | 0 |
| N#Cc1cccc(C2=C(O)/C(=C/c3ccc(-c4cccc(C#N)c4)cc3)OC2=O)c1 [R=H; R1=3-CN—C6H4; R2=4-(3′-CN-biphenyl)] |  | 0 |
| O=C1O/C(=C\c2ccccc2-c2cccc(Cl)c2)C(O)=C1c1cccc(Cl)c1 [R=H; R1=3-Cl—C6H4; R2=2-(3′-Cl-biphenyl)] |  | 0 |
